Broadly, the EC50 is the concentration needed to bring the measured effect to its halfway point. What is called CC50 is the concentration that lowers cell viability or growth by half. High values mean lower toxicity to the cells, low ones greater toxicity to the cells.

From patent publication US20230107941A1, “HEPATITIS B CAPSID ASSEMBLY MODULATORS” (Venatorx Pharmaceuticals, Inc., priority 2019, published 2023) come the findings set out here.

One data set has as its system HBV. The data set can be described thus: In vitro antiviral assay: anti-HBV replication in HepAD38 cells (extracellular HBV DNA by QPCR). The class given is cell-based, hepatitis B virus (genotype D, serotype ayw). Particulars: Hepatitis B virus, HePAD38, 168 h, 7 days incubation, extracellular HBV DNA by QPCR, read-out: Anti-HBV EC50. The procedure:
The anti-HBV activity of the Capsid Assembly Modulators (CAMs) was evaluated in a cell based assay utilizing the human hepatoma cell line HepAD38 (Ladner, S K., et al., 1998). HepAD38 cells were derived from the parental line, HepG2, that were stably transfected with a construct containing an HBV genome (genotype D, serotype ayw) under the control of a tetracycline repressible CMV promoter. Upon removal of tetracycline, viral pre-genomic RNA (pgRNA) and mRNAs are expressed and infectious viral particles are assembled and secreted into the culture medium providing a reliable, robust system to measure multiple steps of the HBV life cycle. Disruption of capsid formation results in reduced levels of DNA-containing virus particles that are released into the culture supernatant. To quantify the effect of CAMs on HBV replication, we developed a sensitive QPCR-based assay that measures extracellular HBV DNA levels upon treatment of HepAD38 cells with various concentrations of test compounds.
HepAD38 cells were maintained in DMEM/F12 medium containing 10% FBS, 400 μg/mL G418 and 0.3 μg/mL tetracycline (tet+ media) to maintain repression of HBV replication. To evaluate each compound, HepAD38 cells were seeded into 24-well collagen coated culture plates (Corning BioCoat) at a density of 200,000 cells per well in 1 mL of medium without tetracycline (tet-media) and allowed to adhere overnight at 37° C., 5% CO2 in a humidified incubator. The following day, media was refreshed and a dose range of each compound was prepared by performing 1 log10 serial dilutions in 100% DMSO at 200× the desired assay concentration. Dilutions were then added to the cells resulting in a final dose range of 1 μM to 10 pM and the plates were returned to the incubator. Following 7 days of incubation, culture supernatants were harvested and HBV DNA levels were evaluated by QPCR and compared to the vehicle treated control wells (i.e. DMSO alone).
To quantify HBV DNA levels, cell culture supernatants were diluted 1:10 in sterile, nuclease-free water (Gibco). The diluted supernatants were subsequently added to a PCR master mix containing 1× Roche Light Cycler Master Mix, 0.5 μM forward primer, 0.5 μM reverse primer (Fwd: 5′-[…] (SEQ ID NO 1); Rev: 5′-[…] (SEQ ID NO 2)), 0.2 μM Roche Universal Probe Library Probe 25. The volume was brought to 20 μL with nuclease-free water and amplification of the HBV target sequence was performed using a Roche LightCycler 480 QPCR instrument. PCR extended out to 45 cycles with each cycle consisting of a denaturation step at 95° C. for 10 sec., followed by an annealing step at 60° C. for 10 sec. and a brief extension step at 72° C. for 1 sec.
Extracellular HBV DNA levels, expressed in copies/mL, were determined by comparison to a standard curve (10^2-10^9 copies/mL) using the Roche LightCycler analysis software. These values were subsequently converted to percent inhibition of HBV replication by dividing the HBV DNA levels in the experimental samples with those obtained from the vehicle control (˜1-2×10^5 copies/mL). Potency, expressed as an EC50 (the effective concentration required to inhibit 50% of HBV replication), was calculated from the dose-response curve using a 4-parameter non-linear regression analysis (GraphPad Prism). The nucleoside analog inhibitor entecavir was used as a positive control to validate each assay run. The EC50 value of entecavir in the HepAD38 assay was 0.5 nM, as previously reported in the literature.

Data set [1] in a line: In vitro cytotoxicity assay (MTT cell viability) in HepG2 cells. The class given is cell-based, human. Particulars: human. The protocol: To evaluate antiviral selectivity, the cytotoxic activity of each compound was determined using a standard cell viability assay performed on the parental HepG2 cell line. Cell viability was determined by measuring the conversion of 3-(4,5-dimethylthiazol-2-yl)-2,5-diphenyltetrazolium bromide (MTT) to the insoluble formazan salt crystal that occurs in live cells. Briefly, HepG2 cells were seeded in 96-well plates at a density of 20,000 cells per well in […] (complete growth medium) and allowed to adhere overnight in a 37° C., […] humidified incubator. The next day, test agents were prepared by performing 8 half-log10 serial dilutions in 100% DMSO at 200× the final desired concentration in the assay. Compounds were tested over a range of concentrations from 30 μM to 1.0 nM in the assay. HepG2 cells were incubated in the presence of various concentrations of CAMs for 7 days in a 37° C., […] humidified incubator. At the completion of the 7-day incubation period, MTT reagent was added to each well and the mixture was incubated for an additional 3-4 hours. At the completion of the incubation period, all wells were aspirated to remove the culture medium. The formazan crystals were solubilized from the cell monolayers with 100% DMSO. Plates were briefly mixed on an orbital shaker and absorbance was measured at 492 nm using a Perkin-Elmer EnVision multi-label plate reader. All absorbance values were converted to a percentage of the signal obtained from the vehicle treated controls. Absorbance values at 492 nm are directly proportional to the number of viable cells present in the sample. A CC50 value (cytotoxic concentration that results in loss of 50% cell viability) was calculated from the dose-response curve by 4-parameter, non-linear regression analysis using the GraphPad Prism software. The positive control compound, staurosporine, reduced the viability of HepG2 cells in a dose-dependent manner (CC50=100 nM).

`Cc1cc(NC(=O)c2c(C)c(C(=O)C(=O)N[C@@H]3CC[C@@H](O)C[C@@H]3F)n(C)c2C)ccc1F` [Example 14, N-(4-fluoro-3-methylphenyl)-5-(2-(((1R,2S,4R)-2-fluoro-4-hydroxycyclohexyl)amino)-2-oxoacetyl)-1,2,4-trimethyl-1H-pyrrole-3-carboxamide]: the EC50 with HBV was under 0.05 µM. The CC50 at 7 days in data set [1] is over 30 µM.

`Cc1cc(NC(=O)c2c(C)c(C(=O)C(=O)N[C@@H]3CC[C@H](O)C[C@H]3F)n(C)c2C)ccc1F` [Example 15, N-(4-fluoro-3-methylphenyl)-5-(2-(((1R,2R,4S)-2-fluoro-4-hydroxycyclohexyl)amino)-2-oxoacetyl)-1,2,4-trimethyl-1H-pyrrole-3-carboxamide]: the 50% effective concentration (EC50) in the data set with HBV was under 0.05 µM. This molecule showed a CC50 at 7 days in data set [1] of over 30 µM.

As to `Cc1c(C(=O)Nc2ccc(F)c(C#N)c2)c(C)n(C)c1C(=O)C(=O)N[C@]1(C)CC[C@@H](O)CC1` [Example 16, N-(3-cyano-4-fluorophenyl)-5-(2-(((1r,4r)-4-hydroxy-1-methylcyclohexyl)amino)-2-oxoacetyl)-1,2,4-trimethyl-1H-pyrrole-3-carboxamide], the EC50 in the data set with HBV is under 0.05 µM. This molecule also returned a CC50 at 7 days in data set [1] of over 30 µM.

In the case of `Cc1c(C(=O)Nc2ccc(F)c(C#N)c2)c(C)n(C)c1C(=O)C(=O)N[C@H]1CC[C@@H](O)CC1` [Example 17, N-(3-cyano-4-fluorophenyl)-5-(2-(((1s,4s)-4-hydroxycyclohexyl)amino)-2-oxoacetyl)-1,2,4-trimethyl-1H-pyrrole-3-carboxamide], the concentration giving a half-maximal response (EC50) in the data set on HBV is under 0.05 µM. This molecule also came in with a half-maximal cytotoxic concentration (CC50) at 7 days in data set [1] of over 30 µM.

In the case of `Cc1c(C(=O)Nc2ccc(F)c(Br)c2)c(C)n(C)c1C(=O)C(=O)N[C@]1(C)CC[C@@H](O)CC1` [Example 18, N-(3-bromo-4-fluorophenyl)-5-(2-(((1r,4r)-4-hydroxy-1-methylcyclohexyl)amino)-2-oxoacetyl)-1,2,4-trimethyl-1H-pyrrole-3-carboxamide], the half-maximal effective concentration (EC50) with HBV is under 0.05 µM. Further, in data set [1], the CC50 at 7 days was over 30 µM.

Turning to `Cc1c(C(=O)Nc2ccc(F)c(Br)c2)c(C)n(C)c1C(=O)C(=O)N[C@H]1CC[C@@H](O)CC1` [Example 19, N-(3-bromo-4-fluorophenyl)-5-(2-(((1s,4s)-4-hydroxycyclohexyl)amino)-2-oxoacetyl)-1,2,4-trimethyl-1H-pyrrole-3-carboxamide], in the data set with HBV, the EC50 was under 0.05 µM. This molecule registered a CC50 at 7 days in data set [1] of over 30 µM.

Consider `Cc1cc(NC(=O)c2c(C)c(C(=O)C(=O)N[C@H]3[C@@H]4CC[C@@H](C4)[C@H]3CO)n(C)c2C)ccc1F` [Example 20, N-(4-fluoro-3-methylphenyl)-5-(2-(((1R,2S,3R,4S)-3-(hydroxymethyl)bicyclo[2.2.1]heptan-2-yl)amino)-2-oxoacetyl)-1,2,4-trimethyl-1H-pyrrole-3-carboxamide], for which the EC50 with HBV was under 0.05 µM. For the same molecule, in data set [1], the CC50 at 7 days was over 30 µM.

Take `Cc1cc(NC(=O)c2c(C)c(C(=O)C(=O)N[C@H]3[C@H]4CC[C@H](C4)[C@H]3CO)n(C)c2C)ccc1F` [Example 21, N-(4-fluoro-3-methylphenyl)-5-(2-(((1S,2S,3R,4R)-3-(hydroxymethyl)bicyclo[2.2.1]heptan-2-yl)amino)-2-oxoacetyl)-1,2,4-trimethyl-1H-pyrrole-3-carboxamide]: the EC50 in the data set on HBV was under 0.05 µM. Further, the CC50 at 7 days in data set [1] is over 30 µM.

Consider `Cc1cc(NC(=O)c2c(C)c(C(=O)C(=O)N[C@H]3C[C@@H]4CC[C@H]3C4)n(C)c2C)ccc1F` [Example 22, 5-(2-(((1S,2S,4R)-bicyclo[2.2.1]heptan-2-yl)amino)-2-oxoacetyl)-N-(4-fluoro-3-methylphenyl)-1,2,4-trimethyl-1H-pyrrole-3-carboxamide], for which the EC50 in the data set with HBV was under 0.05 µM. For the same molecule, the CC50 at 7 days in data set [1] was in the range of 5 to 30 µM.

Turning to `Cc1cc(NC(=O)c2c(C)c(C(=O)C(=O)NC3C[C@H]4C[C@@H]3CC4O)n(C)c2C)ccc1F` (stereo partly drawn) [Example 23, N-(4-fluoro-3-methylphenyl)-5-(2-(((1R,4R)-5-hydroxybicyclo[2.2.1]heptan-2-yl)amino)-2-oxoacetyl)-1,2,4-trimethyl-1H-pyrrole-3-carboxamide], in the data set on HBV, the EC50 is under 0.05 µM. Besides, in data set [1], the CC50 at 7 days is over 30 µM.

As to `Cc1cc(NC(=O)c2c(C)c(C(=O)C(=O)NC3C[C@@H]4CC(O)[C@H]3C4)n(C)c2C)ccc1F` (stereo partly drawn) [Example 24, N-(4-fluoro-3-methylphenyl)-5-(2-(((1S,4R)-6-hydroxybicyclo[2.2.1]heptan-2-yl)amino)-2-oxoacetyl)-1,2,4-trimethyl-1H-pyrrole-3-carboxamide], the EC50 in the data set with HBV was under 0.05 µM. In data set [1], the CC50 at 7 days was over 30 µM.

In the case of `Cc1c(C(=O)Nc2cc(F)c(F)c(F)c2)c(C)n(C)c1C(=O)C(=O)N[C@]1(C)CC[C@@H](O)CC1` [Example 25, 5-(2-(((1r,4r)-4-hydroxy-1-methylcyclohexyl)amino)-2-oxoacetyl)-1,2,4-trimethyl-N-(3,4,5-trifluorophenyl)-1H-pyrrole-3-carboxamide], the concentration for a half-maximal effect (EC50) with HBV is under 0.05 µM. This molecule had a CC50 at 7 days in data set [1] of over 30 µM.

Regarding `CCOC(=O)CO[C@H]1CC[C@@H](NC(=O)C(=O)c2c(C)c(C(=O)Nc3ccc(F)c(C)c3)c(C)n2C)CC1` [Example 26, ethyl 2-(((1s,4s)-4-(2-(4-((4-fluoro-3-methylphenyl)carbamoyl)-1,3,5-trimethyl-1H-pyrrol-2-yl)-2-oxoacetamido)cyclohexyl)oxy) acetate], the EC50 in the data set on HBV is over 1 µM. For the same molecule, the CC50 at 7 days in data set [1] was over 30 µM.

For `Cc1cc(NC(=O)c2c(C)c(C(=O)C(=O)NC3(C)CCN(CC(=O)O)CC3)n(C)c2C)ccc1F` [Example 27, 2-(4-(2-(4-((4-fluoro-3-methylphenyl)carbamoyl)-1,3,5-trimethyl-1H-pyrrol-2-yl)-2-oxoacetamido)-4-methylpiperidin-1-yl)acetic acid], the EC50 in the data set with HBV is 0.5 to 1 µM. Also, the CC50 at 7 days in data set [1] is over 30 µM.

Take `Cc1cc(NC(=O)c2c(C)c(C(=O)C(=O)N[C@H]3CCN(CC(=O)O)C3)n(C)c2C)ccc1F` [Example 28, (S)-2-(3-(2-(4-((4-fluoro-3-methylphenyl)carbamoyl)-1,3,5-trimethyl-1H-pyrrol-2-yl)-2-oxoacetamido)pyrrolidin-1-yl)acetic acid]: the EC50 in the data set on HBV was over 1 µM. Also, the CC50 at 7 days in data set [1] is over 30 µM.

Take `Cc1c(C(=O)NC23CCC(O)(CC2)CC3)c(C)n(C)c1C(=O)C(=O)Nc1cccnc1` [Example 29, N-(4-hydroxybicyclo[2.2.2]octan-1-yl)-1,2,4-trimethyl-5-(2-oxo-2-(pyridin-3-ylamino)acetyl)-1H-pyrrole-3-carboxamide]: in the data set with HBV, the EC50 was over 1 µM. In addition, the CC50 at 7 days in data set [1] is over 30 µM.
